Experimental data published in patent publication US20170002360A1, “PROTEIN PHOSPHATASE INHIBITOR” (priority 2013, published 2017).

Columns and labels:
[1] = test system: DU145/RCO.1 cells; assay: CPT titration, loss of viability, CPT resistant cells with or without PPEF1 SiRNA; assay type: cell-based; conditions: 48 hrs post CPT treatment
Source text: (§1) FIG. 6B: Camptothecin treatment of CPT approved resistant cells. CPT was titrated on DU145/RCO.1 cells reported to be resistant to CPT. 48 hrs post CPT treatment, the cells were examined for the loss of viability compared to control (untreated)
as §1, with “6C:” for “6B:”, “cells after PPEF1 inhibition. 24 hrs post PPEF1 SiRNA treatment,” for “cells.”
(§2) In addition to the described experiments, the effect of inhibiting the phosphatase PPEF1 on characterized published drug resistant cell lines was assessed. The resistant cell lines used in these experiments were DU145/RCO.1 cells, which were kindly provided by Prof. Dr. Yves Pommier from the Laboratory of Molecular Pharmacology, Center of Cancer research, National Cancer institute, Bethesda, USA. These DU145/RCO.1 cells and their resistance to CPT) have been described Urasaki et al. (Cancer Research 61, 2001, pp. 1964-1969). Initially, DU145 prostate cancer wild type cell line was treated with varying concentrations of camptothecin (CPT).
The results of these experiments can be seen in FIG. 6c.

[2] = test system: DU145 prostate cancer wild type cell line; assay: CPT titration, loss of viability, wild-type prostate cancer cells; assay type: cell-based; conditions: varying concentrations of CPT; 48 hrs post CPT treatment
Experimental: FIG. 6A: Camptothecin (CPT) treatment of DU145 prostate cancer wild-type cell line. CPT was titrated on DU145 wild-type cells and 48 hrs post CPT treatment, the cells were examined for the loss of viability compared to control (untreated)
as §2

## CC[C@@]1(O)C(=O)OCc2c1cc1n(c2=O)Cc2cc3ccccc3nc2-1 [CPT, camptothecin]
[1]; varying concentrations of CPT alone
  viability: did not significantly change
[2]
  viability: greatly reduced

## Example 2: SiRNA oligonucleotide targeting PPEF1, CAGTTCGAATCTGGTAAACAT, obtained from Qiagen (chemistry not given here)
[1]; CPT titrated 24 hrs post PPEF1 SiRNA treatment
  sensitivity to CPT / viability: became sensitive and lost viability
